Measured values reported in US11656384B2, “Composition, film, lens, solid state imaging element, and compounds” (FUJIFILM Corporation, priority 2017, dated 2023).
Blank lines part the entries; values can stand above or below the compound they belong to.

Assay: Dissolution test: solubility of the compound in a solvent at 25° C.
[1] = solvent PGMEA/PGME (90% by mass/10% by mass)
[2] = solvent Diethylene glycol monobutyl ether acetate

Description: By the following method, the solubility of the compound represented by General Formula (I) in a solvent was investigated.
Then, solids were removed using a 0.5 μm TEFLON (registered trademark) filter. Thereafter, the obtained filtrate was caused to volatilize for 3 hours at 150° C. in a vacuum, and the content of residues was measured, thereby quantifying the content of solids dissolved in the solvent.

Structure (SMILES): N#Cc1ccc(Nc2nc(Nc3ccc(C#N)cc3)nc(Nc3ccc(C#N)cc3)n2)cc1 [Compound A-2]
Solubility (solvent Cyclohexyl methyl ether): < 0.5% by mass
Solubility (solvent PGMEA): Less than 0.5% by % by mass

Structure (SMILES): CC(=O)Nc1ccc(Nc2nc(Nc3ccc(NC(C)=O)cc3)nc(Nc3ccc(NC(C)=O)cc3)n2)cc1 [Compound A-3]
Solubility (solvent Cyclohexanone): < 0.5% by mass
Solubility (solvent PGME): < 0.5% by mass
Solubility (solvent PGMEA): Less than 0.5% by % by mass

Structure (SMILES): Brc1ccc(Nc2nc(Nc3ccc(Br)cc3)nc(Nc3ccc(Br)cc3)n2)cc1 [Compound A-5]
Solubility (solvent 3-methoxybutyl acetate): < 0.5% by mass
Solubility (solvent PGMEA): Less than 0.5% by % by mass

Structure (SMILES): O=[N+]([O-])c1ccc(Nc2nc(Nc3ccc([N+](=O)[O-])cc3)nc(Nc3ccc([N+](=O)[O-])cc3)n2)cc1 [Compound A-6]
Solubility (solvent Cyclohexyl acetate): < 0.5% by mass
Solubility (solvent PGMEA): Less than 0.5% by % by mass

Structure (SMILES): c1ccc(-c2ccc(-c3ccc(Nc4nc(Nc5ccc(-c6ccc(-c7ccccc7)cc6)cc5)nc(Nc5ccc(-c6ccc(-c7ccccc7)cc6)cc5)n4)cc3)cc2)cc1 [Compound A-7]
Solubility (solvent PGMEA): Less than 0.5% by % by mass
Solubility (solvent PGMEA/PGME (70% by mass/30% by mass)): < 0.5% by mass
Solubility [1]: < 0.5% by mass

Structure (SMILES): N#Cc1ccc(-c2ccc(Nc3nc(Nc4ccc(-c5ccc(C#N)cc5)cc4)nc(Nc4ccc(-c5ccc(C#N)cc5)cc4)n3)cc2)cc1 [Compound A-8]
Solubility (solvent Cyclopentanone): < 0.5% by mass
Solubility (solvent PGMEA): Less than 0.5% by % by mass

Structure (SMILES): CSc1ccc(Nc2nc(Nc3ccc(SC)cc3)nc(Nc3ccc(SC)cc3)n2)cc1 [Compound A-9]
Solubility (solvent Cyclobutyl ether): < 0.5% by mass
Solubility [2]: < 0.5% by mass
Solubility (solvent PGMEA): Less than 0.5% by % by mass

Structure (SMILES): c1ccc(-c2ccc(-c3ccc(-c4ccc(Nc5nc(Nc6ccc(-c7ccc(-c8ccc(-c9ccccc9)cc8)cc7)cc6)nc(Nc6ccc(-c7ccc(-c8ccc(-c9ccccc9)cc8)cc7)cc6)n5)cc4)cc3)cc2)cc1 [Compound A-21]
Solubility (solvent PGMEA): Less than 0.5% by % by mass

Structure (SMILES): Clc1ccc(-c2ccc(Nc3nc(Nc4ccc(-c5ccc(Cl)cc5)cc4)nc(Nc4ccc(-c5ccc(Cl)cc5)cc4)n3)cc2)cc1 [Compound A-22]
Solubility (solvent PGMEA): Less than 0.5% by % by mass

Structure (SMILES): N#Cc1ccc(-c2ccc(Nc3nc(Nc4ccc(-c5ccc(C#N)cc5)cc4)nc(Oc4ccccc4)n3)cc2)cc1 [Compound A-24]
Solubility (solvent PGMEA): Less than 0.5% by % by mass

The remaining lines, values ahead:

Solubility (solvent Toluene): < 0.5% by mass
Structure (SMILES): c1ccc(Nc2nc(Nc3ccccc3)nc(Nc3ccccc3)n2)cc1 [Compound A-1]

Solubility (solvent Butyl acetate): < 0.5% by mass
Solubility (solvent PGME): < 0.5% by mass
Solubility (solvent PGMEA): Less than 0.5% by % by mass
Structure (SMILES): c1ccc2cc(Nc3nc(Nc4ccc5ccccc5c4)nc(Nc4ccc5ccccc5c4)n3)ccc2c1 [Compound A-4]

Solubility (solvent Anisole): < 0.5% by mass
Solubility (solvent PGMEA): Less than 0.5% by % by mass
Solubility (solvent Propylene glycol diacetate): < 0.5% by mass
Structure (SMILES): CN(c1ccccc1)c1nc(Nc2ccccc2)nc(Nc2ccccc2)n1 [Compound A-10]

Solubility (solvent Dipropylene glycol dimethyl ether): < 0.5% by mass
Solubility (solvent PGMEA): Less than 0.5% by % by mass
Structure (SMILES): c1ccc(Nc2nc(Nc3ccccc3)nc(Oc3ccccc3)n2)cc1 [Compound A-11]

Solubility (solvent 3-methoxybutyl acetate): < 0.5% by mass
Solubility [2]: < 0.5% by mass
Solubility (solvent PGMEA): Less than 0.5% by % by mass
Structure (SMILES): c1ccc(Nc2nc(Nc3ccccc3)nc(Sc3ccccc3)n2)cc1 [Compound A-12]

Solubility (solvent Ethyl lactate): < 0.5% by mass
Solubility (solvent PGMEA): Less than 0.5% by % by mass
Structure (SMILES): O=C(Nc1ccccc1)c1cc(C(=O)Nc2ccccc2)cc(C(=O)Nc2ccccc2)c1 [Compound A-14]

Solubility (solvent Cyclohexyl acetate): < 0.5% by mass
Solubility (solvent PGMEA): Less than 0.5% by % by mass
Solubility [1]: < 0.5% by mass
Structure (SMILES): O=S(=O)(Nc1ccccc1)c1cccc2c(S(=O)(=O)Nc3ccccc3)cccc12 [Compound A-15]

Solubility (solvent 3-methoxybutyl acetate): < 0.5% by mass
Solubility (solvent PGMEA/PGME (80% by mass/20% by mass)): < 0.5% by mass
Structure (SMILES): O=S(=O)(Nc1ccccc1)c1cccc2c(S(=O)(=O)Nc3ccccc3)cccc12 [Compound A-16]

Solubility (solvent Cyclopentanone/PGME (90% by mass/10% by mass)): < 0.5% by mass
Structure (SMILES): O=S(=O)(Nc1ccccc1)c1cccc2c(S(=O)(=O)Nc3ccccc3)cccc12 [Compound A-17]

Solubility (solvent PGMEA): Less than 0.5% by % by mass
Structure (SMILES): c1ccc(Nc2nc(Nc3ccccc3)nc(Nc3ccc(-c4ccc(-c5ccccc5)cc4)cc3)n2)cc1 [Compound A-19]

Solubility (solvent PGMEA): Less than 0.5% by % by mass
Structure (SMILES): c1ccc(-c2ccc(-c3ccc(Nc4nc(Nc5ccc(-c6ccc(-c7ccccc7)cc6)cc5)nc(Nc5nc6ccccc6s5)n4)cc3)cc2)cc1 [Compound A-20]

Solubility (solvent PGMEA): Less than 0.5% by % by mass
Structure (SMILES): CN(c1ccccc1)c1nc(Nc2ccc(-c3ccc(-c4ccccc4)cc3)cc2)nc(Nc2ccc(-c3ccc(-c4ccccc4)cc3)cc2)n1 [Compound A-23]
